PMC12548400, “Urease promotes pH homeostasis and growth of Staphylococcus aureus in skin-like conditions” (Journal of Bacteriology, 2025)

Legend:
[1] = biological target: T1, jack bean urease (Canavalia ensiformis, UniProt P07374); experiment: inhibition of purified urease; coupled glutamate dehydrogenase/NADH depletion assay at […] nm; format: biochemical
T1 construct: commercially purified jack bean urease

[2] = biological target: T2, S. aureus urease (Staphylococcus aureus, UniProt Q2FEK3); experiment: urease activity in cell-free lysate with […] urea; coupled glutamate dehydrogenase/NADH assay; format: biochemical
T2 construct: gene ureC; native urease in cell-free lysates of S. aureus LAC (USA300); with UreA, UreB (urease subunits)

[3] = biological target: T3, S. aureus urease (Staphylococcus aureus, UniProt P67403); experiment: urea hydrolysis in lysates by coupled enzyme assay; activity lost in ureD::Tn mutant and restored by complementation; format: cell-based
T3 construct: gene ureC; native urease in cell lysates of S. aureus LAC (USA300); with UreA, UreB (urease subunits)
T3 sequence (P67403 whole entry): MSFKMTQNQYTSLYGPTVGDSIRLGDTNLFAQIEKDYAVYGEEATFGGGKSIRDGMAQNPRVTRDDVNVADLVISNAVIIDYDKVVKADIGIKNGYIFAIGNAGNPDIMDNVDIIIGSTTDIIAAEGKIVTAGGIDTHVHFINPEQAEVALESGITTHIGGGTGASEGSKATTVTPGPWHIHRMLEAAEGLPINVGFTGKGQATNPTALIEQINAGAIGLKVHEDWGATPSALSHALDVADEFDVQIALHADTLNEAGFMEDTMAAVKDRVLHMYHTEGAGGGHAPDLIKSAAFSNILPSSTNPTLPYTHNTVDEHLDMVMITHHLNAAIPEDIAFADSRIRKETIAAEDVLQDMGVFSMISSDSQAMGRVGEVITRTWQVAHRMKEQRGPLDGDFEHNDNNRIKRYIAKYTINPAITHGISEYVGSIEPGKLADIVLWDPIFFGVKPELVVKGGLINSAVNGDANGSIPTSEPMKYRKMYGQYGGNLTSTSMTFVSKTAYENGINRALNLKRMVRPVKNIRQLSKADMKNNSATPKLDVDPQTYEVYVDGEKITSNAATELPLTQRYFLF

T2 sequence (Q2FEK4 whole entry): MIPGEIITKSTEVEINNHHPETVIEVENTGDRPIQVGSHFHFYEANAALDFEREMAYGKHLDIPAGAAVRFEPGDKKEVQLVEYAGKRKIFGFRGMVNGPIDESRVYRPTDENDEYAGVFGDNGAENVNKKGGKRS
T2 sequence (Q2FEK3 whole entry): as the sequence (P67403 whole entry) above
T2 sequence (Q2FEK5 whole entry, further chain): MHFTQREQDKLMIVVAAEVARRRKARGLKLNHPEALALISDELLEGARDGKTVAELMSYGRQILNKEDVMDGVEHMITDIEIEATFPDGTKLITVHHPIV
T1 sequence (P07374 whole entry, looked up): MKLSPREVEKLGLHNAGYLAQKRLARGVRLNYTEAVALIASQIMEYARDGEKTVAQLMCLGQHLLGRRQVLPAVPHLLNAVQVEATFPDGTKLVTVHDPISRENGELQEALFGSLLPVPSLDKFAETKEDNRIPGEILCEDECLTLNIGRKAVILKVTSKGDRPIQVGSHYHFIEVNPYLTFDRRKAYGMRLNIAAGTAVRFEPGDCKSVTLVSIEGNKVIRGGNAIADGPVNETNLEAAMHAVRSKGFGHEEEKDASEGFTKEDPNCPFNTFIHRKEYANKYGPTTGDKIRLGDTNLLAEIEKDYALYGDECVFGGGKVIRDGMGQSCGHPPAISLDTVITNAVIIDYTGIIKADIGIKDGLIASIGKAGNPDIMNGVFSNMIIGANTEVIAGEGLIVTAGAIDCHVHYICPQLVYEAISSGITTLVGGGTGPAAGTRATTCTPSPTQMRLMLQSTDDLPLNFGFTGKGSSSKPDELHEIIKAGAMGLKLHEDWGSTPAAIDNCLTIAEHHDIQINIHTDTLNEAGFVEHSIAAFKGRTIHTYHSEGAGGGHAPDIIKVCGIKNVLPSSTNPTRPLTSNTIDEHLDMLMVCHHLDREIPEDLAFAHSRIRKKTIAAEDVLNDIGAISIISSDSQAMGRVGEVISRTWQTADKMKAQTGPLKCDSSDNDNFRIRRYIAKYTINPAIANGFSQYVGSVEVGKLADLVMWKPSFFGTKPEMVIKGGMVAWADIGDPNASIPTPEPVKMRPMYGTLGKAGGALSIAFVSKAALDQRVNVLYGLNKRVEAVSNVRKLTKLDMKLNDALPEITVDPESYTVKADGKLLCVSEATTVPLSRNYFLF

Row | SMILES | IC50 [1] | IC50 [2] | urea hydrolysis in lysates by coupled enzyme assay; activity lost in ureD::Tn mu [3]
1 | NP(N)(=O)NC(=O)c1ccc(F)cc1 [FF, N-(diaminophosphinyl)-4-fluorobenzenamide] | 131 nM | 34.2 nM | 
2 | NC(N)=O [urea] |  |  | loss of urease activity in the mutant strain and reconstitution of activity in the complementation strain using a coupled enzyme assay
